These results are taken from paper PMC5790279, “Identification of novel leishmanicidal molecules by virtual and biochemical screenings targeting Leishmania eukaryotic translation initiation factor 4A” (PLoS Neglected Tropical Diseases, 2018).

Where two headings read alike, the source gives them in different places. Some results are limits rather than exact numbers.

Data set [1] has as its system intracellular L. donovani amastigotes. On the set-up: method as in PMID 16949702. The following applies: at 1.94 μM; cited from earlier work.
The target of a further data set is T1, eIF4AIMus (Mus musculus, UniProt P60843).
T1 construct: His tag; made in house; host or cells: Escherichia coli Rosetta (Novagen)
T1 sequence (P60843 whole entry): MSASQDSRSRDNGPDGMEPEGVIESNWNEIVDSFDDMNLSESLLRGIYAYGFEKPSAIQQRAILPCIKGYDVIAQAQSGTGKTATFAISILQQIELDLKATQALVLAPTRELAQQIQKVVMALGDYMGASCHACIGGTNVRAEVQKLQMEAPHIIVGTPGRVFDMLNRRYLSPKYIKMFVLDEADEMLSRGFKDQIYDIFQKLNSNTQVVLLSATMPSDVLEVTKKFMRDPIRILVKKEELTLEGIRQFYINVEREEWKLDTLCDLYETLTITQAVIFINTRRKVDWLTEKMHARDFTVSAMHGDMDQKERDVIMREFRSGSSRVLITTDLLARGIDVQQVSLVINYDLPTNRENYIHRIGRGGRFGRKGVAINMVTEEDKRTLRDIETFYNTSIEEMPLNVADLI
The experiment in a line: Malachite green RNA-dependent ATPase assay of eIF4AIMus. In kind it is biochemical. The following applies: for effect on the ATPase activity of eIF4AIMus in screen: screened at 500 μM. The protocol:
(§1) The Rosetta Escherichia coli strain (Novagen) was used for the expression of His-tagged recombinant LieIF and mouse eIF4AI (eIF4AIMus) proteins using already described constructs. Protein expression was performed as previously described, except that cultures were induced with 0.5 mM IPTG. Cells were collected by centrifugation and stored at -20°C until needed. Pellets were resuspended in 10 ml of buffer A (Tris-HCl, pH 7.5, 300 mM NaCl) supplemented with 10 mM imidazole and 0.02% NP40 (lysis buffer). Lysozyme (10 μg/ml, Sigma-Aldrich, St. Louis, MO, USA) and 1x of complete protease inhibitor EDTA-free cocktail (Roche, Indianapolis, USA) were added. The mixtures were kept on ice for 30 min. Then, cells were ruptured by sonication four times for 20 seconds with a Cell Disruptor W375 (Heat System-Ultrasonic, Plainview, N.Y., USA) using a microprobe at a setting of 5 and a duty cycle of 60%. The material was centrifuged for 30 min at 15,000 rpm in a JA-20 rotor (Beckman Coulter, Villepinte, France) at 4°C, and the supernatant was loaded onto a 1 ml nickel-nitrilotriacetic acid (Ni-NTA) agarose column (Ni-NTA, Qiagen, Hilden, Germany) equilibrated with the lysis buffer. The column was washed with 20 ml buffer A supplemented with 25 mM imidazole and 0.02% NP40 (wash buffer 1), and then with 20 ml buffer A supplemented with 25 mM imidazole (wash buffer 2). Proteins were eluted with buffer A supplemented with 100 mM imidazole (elution buffer). The purity of the proteins was checked on 12% SDS-PAGE gels that were stained with Coomassie blue. Purified proteins were stored at -80°C after making 50% in glycerol (w/w). The proteins concentrations were determined using the Bio-Rad Protein Dye Assay (Biorad, Munich, Germany).
(§2) We used a colorimetric assay based on Malachite green as previously described. We optimized the previously published conditions for the LieIF and eIF4AIMus ATPase assays to fit microtiter plates and the screening conditions by varying the quantities of proteins, ATP and magnesium acetate, and by testing different sources and concentrations of RNA. Each reaction was done in 50 μl. The final reaction buffers contained 50 mM potassium acetate, 20 mM MES, pH 6, either 5 mM or 1 mM magnesium acetate for LieIF or eIF4AIMus respectively, 2 mM dithiothreitol (DTT), 0.1 mg/ml bovine serum albumin (BSA) and 0.34 mg/ml whole yeast RNA (Type XI, Sigma). Reactions were incubated at 37°C for various times up to 45 min, and were stopped by adding 5 μl of 0.5 M ethylenediaminetetraacetic acid (EDTA) at pH 8. In experiments testing the compounds, samples dissolved in DMSO were added to the reaction in different concentrations. The final concentration of DMSO in the reaction was 10% (v/v). The reaction rates were determined by a linear regression fit of the initial, linear phase of the curves. Reaction rates were determined in three independent experiments for each compound concentration. Data were analyzed with Kaleidagraph (Synergy).
Biochemical screening experiments were performed in 96-well plates. Column 1 and 12 contained full signal controls (no inhibitor) and background controls (no enzyme): wells A1 to D1 and E12 to H12 corresponded to negative controls; E1 to H1 and A12 to D12 corresponded to positive controls. Compounds were added in columns 2 to 11, at a 500 μM final concentration. ATPase test reactions were done in three independent experiments. The phosphate released was measured after 45 min. Results were reported as weighted means. Z’-scores were calculated for each plate from the full signal and background controls. Plates with Z’-values below 0.5 were discarded. The inhibition of ATPase activity was calculated as follow: [85] Percentageofinhibition=(μ^+-OD630nmforcompoundX)/(μ^+-μ^-)*100 (3) Selected hits were further tested with kinetic assays. Results were reported as ATPase reaction velocities. […]

A further data set addresses T2, LieIF (Leishmania infantum, UniProt A4HRK0).
T2 construct: His tag; made in house; host or cells: Escherichia coli Rosetta (Novagen)
T2 sequence (A4HRK0 1-403): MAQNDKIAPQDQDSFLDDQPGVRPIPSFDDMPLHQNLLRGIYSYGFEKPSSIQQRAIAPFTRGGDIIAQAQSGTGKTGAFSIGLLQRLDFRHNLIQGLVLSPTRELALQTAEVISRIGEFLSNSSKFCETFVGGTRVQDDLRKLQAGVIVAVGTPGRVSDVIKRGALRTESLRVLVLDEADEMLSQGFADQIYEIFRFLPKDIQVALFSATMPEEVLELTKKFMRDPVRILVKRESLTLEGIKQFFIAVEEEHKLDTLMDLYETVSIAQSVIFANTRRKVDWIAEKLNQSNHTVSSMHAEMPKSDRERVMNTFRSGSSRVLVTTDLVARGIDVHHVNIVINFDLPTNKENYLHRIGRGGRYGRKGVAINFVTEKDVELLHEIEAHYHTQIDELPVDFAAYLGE
Briefly: Malachite green RNA-dependent ATPase assay of LieIF. Type of data set: biochemical. The settings on record: for effect on the ATPase activity of LieIF in screen: screened at 500 μM. The method, then:
as §1, §2
The Z’-factor is a statistical parameter used to measure the quality of a screening assay. For the biochemical screening, reactions were done with and without proteins as positive and negative controls, respectively. All assay conditions were identical to those described above. Positive controls were designed to replicate a positive hit in an inhibitor screen. Negative controls were designed as no enzymatic reactions. The phosphate released was measured after 45 min. Statistical analysis was performed using the equation: Z^′=1-3*(σ^++σ^-)/(μ^+-μ^-) (2) where μ^− and σ^− correspond to the mean absorbance and standard deviations respectively, for each reaction without enzyme (no activity), and μ^+ and σ^+ are the mean absorbance and standard deviations, respectively, for reaction wells in the presence of enzyme. The Z’-factor values above 0.5 were considered significant and corresponding plates were retained. […]

The test system of data set [2] is L. infantum promastigotes. The experiment in a line: MTT viability assay on promastigotes. Type of data set: cell-based. The following applies: Leishmania infantum, stationary phase promastigotes, 24h exposure. (Tetrazolium dyes change colour on reduction, which living cells bring about.)
Description: The effect of the selected chemical compounds on the viability of L. infantum promastigotes was evaluated by a colorimetric MTT (3-(4,5-dimethylthiazol-2yl)-2,5-diphenyl tetrazolium bromide) assay that consisted in a reduction of tetrazolium salt to a soluble crystal (blue formazan) by the succinate dehydrogenase activity of mitochondria in living cells, which can be quantified by spectrophotometry as previously described. […] Briefly, 90 μl of promastigotes harvested from the stationary growth phase were added to a 96-well culture plate (5 × 10^5 cells/well) with 10 μl of various concentrations of the selected compounds (to obtain a final concentration of 1.5-100 μM) and incubated at 25°C for 24h. After incubation, 20 μl of MTT solution (5 mg/ml) were added to each well and incubated at 25°C for 4h. Then, 150 μl of DMSO was added to each well to dissolve the blue formazan and the optical density (OD) was measured at 560 nm with a microplate reader ([sequence], Labsystems). Mock treated-promastigotes in complete medium (with no drug, 1% DMSO) were used as positive control. Stock solutions of the compounds prepared for these experiments contained 100% DMSO. All subsequent dilutions were freshly made with RPMI 1640 (final concentration of 10% DMSO). Thus, all compounds, as well as the positive control, were tested at a final concentration of 1% DMSO per well.
The promastigotes viability was expressed as the percentage of the viable promastigotes in treated conditions relative to the 1% DMSO mock-treated promastigotes. The IC50 values were calculated for all the tested compounds by interpolation. […] All experiments were repeated three times in triplicate for each compound concentration. Absorbance measured was used to reflect promastigote or cell viability using the following formula: %cellviability=[(ODtest-ODblank)/(ODcontrol-ODblank)]*100 (4)
Data set [3] is described as follows: MTT cytotoxicity assay on THP-1-derived macrophages. The following applies: human, THP-1-derived macrophages (PMA-differentiated).
Description: The human myelomonocytic cell line, THP-1 was ordered from the American Type Culture Collection (ATCC, TIB-202). [86] Cells were maintained in RPMI 1640/Glutamax-I media (Gibco BRL, Germany) supplemented with 10% heat-inactivated fetal calf serum (Gibco, Germany) plus penicillin G (100 U/ml) and streptomycin (100 g/ml). THP-1 cells were differentiated to macrophages after their treatment with 20 ng/ml phorbol 12-myristate 7-acetate (PMA) (Sigma, St. Louis, MO, USA) for 48 h at 37°C, 5% CO2. [87] […] [87]
For the cytotoxicity assay, we used the THP-1-derived macrophages (50,000 cells/well) seeded in 96-well plates and treated with serial concentrations of compounds (final concentrations of 1.5-100 μM) for 24h. After that, an MTT assay was performed as previously described to determine cell viability. [88] Thus, 20 μl of MTT solution (5 mg/ml) were added to each well and incubated at 25°C for 4h. Then, 150 μl of DMSO were added to each well to dissolve the blue formazan and the optical density (OD) was measured at 560 nm with a microplate reader ([sequence], Labsystems).
The cell viability of THP-1-derived macrophages was expressed as the percentage of the viable cell number in treated cells relative to the THP-1-derived macrophages treated with 1% DMSO. The 50% cytotoxic concentrations (CC50) were calculated for all the tested compounds by interpolation. All experiments were repeated three times in triplicate for each compound concentration.
The test system of data set [4] is L. infantum intramacrophage amastigotes. Briefly: Macrophage infection assay, intramacrophage amastigotes. In kind it is cell-based, Leishmania infantum. The settings on record: infected THP-1-derived macrophages, 24h exposure. The protocol:
[86] […] [87] […] [87]
After careful washing of PMA-treated THP-1 cells (50,000 cells/well) with warm serum-free RPMI-1640 (∼ 37°C) media, 50 μl of the diluted L. infantum promastigote culture were added at the optimized MOI (10:1). Control wells of THP-1 cells without the parasites, and THP-1 cells with the parasites, were set up in each 8-well Labtek slides. The slides were incubated at 37°C, 5% CO2 overnight. After incubation, infected wells were washed at least 3 times with serum-free RPMI-1640 media to ensure complete removal of non-engulfed promastigotes, and then they were incubated in presence of different concentrations of compounds for 24 h. Control groups were incubated in supplemented RPMI medium containing 1% DMSO. Cells were then fixed and stained with RAL 555 rapid stain kit (May-Grünwald Type) (Cell Path, Newtown, UK) following the manufacturer’s instructions. The number of infected cells per 100 macrophages and the total number of parasites per 100 cells observed were determined by light microscopy under immersion oil (1000X) by counting at least 100 cells per well. Three independent experiments were conducted for each compound concentration. These values allowed us to determine the mean values and standard deviations of the percentage of infected cells and the mean amastigote number per cell. To account for the overall parasite load, an Infection Index was calculated by multiplying these two values; then, to assess the infection inhibition by the compounds, the percentage of Inhibition Parasite Index (IPI) was determined as: IPI = 100 − ((Infection Index in treated cells/Infection Index in untreated cells) * 100).
The amastigote IC50 values were calculated for all tested compounds. Selectivity index was also determined for each compound as follows: SI = CC50/IC50. Data were analyzed with Kaleidagraph (Synergy). The statistical significance of differences was determined with the Student’s t-test (* p < 0.05; ** p < 0.01).

The mark [5] stands for this setting: 1 μM protein, 1 mM ATP, saturating RNA, read-out: IC50 of eIF4AIMus ATPase activity.
[6] abbreviates: Leishmania infantum, Macrophage, 24 h.

In the case of 7-α/β-aminocholesterol, the “reduction of the number of intracellular L. donovani amastigotes” value in data set [1] is listed as 59%.
The term IC50 denotes the point on the concentration scale where inhibition reaches its midpoint. In general, inhibition refers to the percentage by which the read-out fell short of the control. What is called CC50 is the concentration at which the toxic effect on the cells reaches its halfway point. Read a high CC50 as better tolerance by the cells. Regarding `CC(C)CCCC(C)C1CCC2C3CC(N)C4CC(O)CCC4(C)C3CCC12C` (mixture of isomers) [Compound 208, 6-α/β-aminocholestanol], the IC50 at eIF4AIMus (setting [5]) is 0.115 ± 0.025 mM; at LieIF, 0.15 ± 0.015 mM; in data set [2], 4.1 ± 2.6 µM; in data set [4] (setting [6]) it was 1.4 ± 0.1 µM. On LieIF (500 μM compound, phosphate released after 45 min, 96-well screen, read-out: percentage of inhibition of LieIF ATPase activity), the inhibition at 500 µM worked out at 90%. The CC50 at 24 h in data set [3] is 43.4 ± 0.1 µM.
For the compound `CC(C)CCCC(C)C1CCC2C3CC(N)C4CC(O)CCC4(C)C3CCC12C` (stereo not drawn) [Compound 20, 6-α-aminocholestanol], the IC50 was 0.185 ± 0.025 mM at eIF4AIMus (setting [5]); 0.16 ± 0.025 mM at LieIF; 3.6 ± 0.1 µM in data set [2]; less than 1 µM in data set [4] (setting [6]); 0.9 µM in data set [4]. Further, the “effect on the ATPase activity of eIF4AIMus in screen” value at eIF4AIMus is recorded as “demonstrated inhibition”. Moreover, the “effect on the ATPase activity of LieIF in screen” value on LieIF is recorded as “demonstrated inhibition”. In addition, the midpoint of cytotoxicity in data set [3], the CC50 at 24 h, lay at 35.2 ± 1.3 µM.
`CC(C)CCCC(C)C1CCC2C3CC(=O)C4CC(O)CCC4(C)C3CCC12C` (stereo not drawn) [Compound 48, 6-ketocholestanol]: the IC50 at eIF4AIMus is more than 1 mM; at eIF4AIMus (read-out: IC50 of eIF4AIMus ATPase activity, 1 μM protein, value printed in mM in text) it was not above 1 mM; at LieIF it was more than 1 mM; at LieIF (read-out: IC50 of LieIF ATPase activity, 1 μM protein, value printed in mM in text), not above 1 mM; in data set [2] it was 39.1 ± 0.8 µM; in data set [4] (setting [6]), 4.2 ± 0.1 µM. Also, the “effect on the ATPase activity of eIF4AIMus in screen” value on eIF4AIMus is on record as “demonstrated inhibition”. Also, the “effect on the ATPase activity of LieIF in screen” value at LieIF is listed as “demonstrated inhibition”. The compound also yielded a CC50 at 24 h in data set [3] of 81.4 ± 2.4 µM.
